From PubChem BioAssay (NCI)
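Compound exposure: 48 hours, 5 concentrations, 96-well plates. TGI is the concentration that stops growth completely.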

Key:
Assay in all cases: NCI-60 cell line screen, 48 h
786-0 renal = system: 786-0 renal
UO-31 renal = system: UO-31 renal
BT-549 breast = system: BT-549 breast
A549 NSCLC = system: A549 NSCLC
UACC-62 melanoma = system: UACC-62 melanoma
UACC-257 melanoma = system: UACC-257 melanoma
MCF7 breast = system: MCF7 breast
HOP-62 NSCLC = system: HOP-62 NSCLC
K-562 leukemia = system: K-562 leukemia
DU-145 prostate = system: DU-145 prostate
OVCAR-8 ovarian = system: OVCAR-8 ovarian
ACHN renal = system: ACHN renal
OVCAR-5 ovarian = system: OVCAR-5 ovarian
MOLT-4 leukemia = system: MOLT-4 leukemia
SK-MEL-5 melanoma = system: SK-MEL-5 melanoma
HCT-116 colon = system: HCT-116 colon
RPMI-8226 leukemia = system: RPMI-8226 leukemia
MDA-N = system: MDA-N
PC-3 prostate = system: PC-3 prostate
CAKI-1 renal = system: CAKI-1 renal
NCI-H23 lung = system: NCI-H23 lung
KM12 colon = system: KM12 colon
SK-MEL-2 melanoma = system: SK-MEL-2 melanoma
HCT-15 colon = system: HCT-15 colon
SNB-19 CNS = system: SNB-19 CNS
OVCAR-3 ovarian = system: OVCAR-3 ovarian
SF-295 CNS = system: SF-295 CNS
COLO 205 colon = system: COLO 205 colon
M14 melanoma = system: M14 melanoma
HOP-92 NSCLC = system: HOP-92 NSCLC
SR leukemia = system: SR leukemia
LOX IMVI melanoma = system: LOX IMVI melanoma
IGROV1 ovarian = system: IGROV1 ovarian
SK-OV-3 ovarian = system: SK-OV-3 ovarian
NCI-H460 lung = system: NCI-H460 lung
HS 578T breast = system: HS 578T breast
MDA-MB-435 = system: MDA-MB-435
MDA-MB-231 breast = system: MDA-MB-231 breast
HT29 colon = system: HT29 colon
NCI-H522 lung = system: NCI-H522 lung
OVCAR-4 ovarian = system: OVCAR-4 ovarian
CCRF-CEM leukemia = system: CCRF-CEM leukemia
SW-620 colon = system: SW-620 colon
SNB-75 CNS = system: SNB-75 CNS
RXF 393 renal = system: RXF 393 renal
SF-268 CNS = system: SF-268 CNS
SF-539 CNS = system: SF-539 CNS
TK-10 renal = system: TK-10 renal
NCI/ADR-RES ovarian = system: NCI/ADR-RES ovarian
EKVX NSCLC = system: EKVX NSCLC
SN12C renal = system: SN12C renal
U251 CNS = system: U251 CNS
A498 renal = system: A498 renal
NCI-H226 lung = system: NCI-H226 lung
T-47D breast = system: T-47D breast
HL-60(TB) leukemia = system: HL-60(TB) leukemia
SK-MEL-28 melanoma = system: SK-MEL-28 melanoma
MALME-3M melanoma = system: MALME-3M melanoma

## Cc1ccc(Cl)c2c(=O)c3ccc([N+](=O)[O-])cc3sc12
786-0 renal
  TGI: > 100 µM
UO-31 renal
  TGI: > 100 µM
BT-549 breast
  TGI: > 100 µM
A549 NSCLC
  TGI: > 100 µM
UACC-62 melanoma
  TGI: > 100 µM
UACC-257 melanoma
  TGI: > 100 µM
MCF7 breast
  TGI: > 100 µM
HOP-62 NSCLC
  TGI: > 100 µM
K-562 leukemia
  TGI: > 100 µM
DU-145 prostate
  TGI: > 100 µM
OVCAR-8 ovarian
  TGI: > 100 µM
ACHN renal
  TGI: > 100 µM
OVCAR-5 ovarian
  TGI: > 100 µM
MOLT-4 leukemia
  TGI: > 100 µM
SK-MEL-5 melanoma
  TGI: > 100 µM
HCT-116 colon
  TGI: > 100 µM
RPMI-8226 leukemia
  TGI: > 100 µM
MDA-N
  TGI: > 100 µM
PC-3 prostate
  TGI: > 100 µM
CAKI-1 renal
  TGI: > 100 µM
NCI-H23 lung
  TGI: > 100 µM
KM12 colon
  TGI: > 100 µM
SK-MEL-2 melanoma
  TGI: > 100 µM
HCT-15 colon
  TGI: > 100 µM
SNB-19 CNS
  TGI: > 100 µM
OVCAR-3 ovarian
  TGI: > 100 µM
SF-295 CNS
  TGI: > 100 µM
COLO 205 colon
  TGI: > 100 µM

## COc1c(C)c(C/C=C(\C)CCCCO[Si](C(C)C)(C(C)C)C(C)C)c(OC)c2ccccc12
786-0 renal
  TGI: > 100 µM
UO-31 renal
  TGI: > 100 µM
BT-549 breast
  TGI: > 100 µM
M14 melanoma
  TGI: > 100 µM
A549 NSCLC
  TGI: > 100 µM
UACC-62 melanoma
  TGI: > 100 µM
UACC-257 melanoma
  TGI: > 100 µM
HOP-92 NSCLC
  TGI: > 100 µM
SR leukemia
  TGI: > 100 µM
LOX IMVI melanoma
  TGI: > 100 µM
IGROV1 ovarian
  TGI: > 100 µM
SK-OV-3 ovarian
  TGI: > 100 µM
MCF7 breast
  TGI: > 100 µM
HOP-62 NSCLC
  TGI: > 100 µM
NCI-H460 lung
  TGI: > 100 µM
HS 578T breast
  TGI: > 100 µM
MDA-MB-435
  TGI: > 100 µM
K-562 leukemia
  TGI: > 100 µM
MDA-MB-231 breast
  TGI: > 100 µM
DU-145 prostate
  TGI: > 100 µM
OVCAR-8 ovarian
  TGI: > 100 µM
ACHN renal
  TGI: > 100 µM
HT29 colon
  TGI: > 100 µM
OVCAR-5 ovarian
  TGI: > 100 µM
MOLT-4 leukemia
  TGI: > 100 µM
NCI-H522 lung
  TGI: > 100 µM
SK-MEL-5 melanoma
  TGI: > 100 µM
OVCAR-4 ovarian
  TGI: > 100 µM
CCRF-CEM leukemia
  TGI: 89.3 µM
SW-620 colon
  TGI: > 100 µM
HCT-116 colon
  TGI: > 100 µM
SNB-75 CNS
  TGI: > 100 µM
MDA-N
  TGI: > 100 µM
RXF 393 renal
  TGI: > 100 µM
SF-268 CNS
  TGI: > 100 µM
SF-539 CNS
  TGI: > 100 µM
PC-3 prostate
  TGI: > 100 µM
TK-10 renal
  TGI: > 100 µM
CAKI-1 renal
  TGI: > 100 µM
NCI/ADR-RES ovarian
  TGI: > 100 µM
NCI-H23 lung
  TGI: > 100 µM
KM12 colon
  TGI: > 100 µM
EKVX NSCLC
  TGI: > 100 µM
SK-MEL-2 melanoma
  TGI: > 100 µM
HCT-15 colon
  TGI: > 100 µM
SNB-19 CNS
  TGI: > 100 µM
SN12C renal
  TGI: > 100 µM
OVCAR-3 ovarian
  TGI: > 100 µM
SF-295 CNS
  TGI: > 100 µM
U251 CNS
  TGI: > 100 µM
COLO 205 colon
  TGI: > 100 µM

## COC(=O)[C@@H]1CN(C(=O)c2ccccc2)C(=O)N1
786-0 renal
  TGI: > 100 µM
UO-31 renal
  TGI: > 100 µM
A498 renal
  TGI: > 100 µM
M14 melanoma
  TGI: > 100 µM
A549 NSCLC
  TGI: > 100 µM
UACC-62 melanoma
  TGI: > 100 µM
UACC-257 melanoma
  TGI: > 100 µM
HOP-92 NSCLC
  TGI: > 100 µM
NCI-H226 lung
  TGI: > 100 µM
SR leukemia
  TGI: > 100 µM
LOX IMVI melanoma
  TGI: > 100 µM
IGROV1 ovarian
  TGI: > 100 µM
HOP-62 NSCLC
  TGI: > 100 µM
T-47D breast
  TGI: > 100 µM
NCI-H460 lung
  TGI: > 100 µM
HS 578T breast
  TGI: > 100 µM
MDA-MB-435
  TGI: > 100 µM
K-562 leukemia
  TGI: > 100 µM
HL-60(TB) leukemia
  TGI: > 100 µM
MDA-MB-231 breast
  TGI: > 100 µM
DU-145 prostate
  TGI: > 100 µM
OVCAR-8 ovarian
  TGI: > 100 µM
ACHN renal
  TGI: > 100 µM
SK-MEL-28 melanoma
  TGI: > 100 µM
HT29 colon
  TGI: > 100 µM
OVCAR-5 ovarian
  TGI: > 100 µM
MOLT-4 leukemia
  TGI: > 100 µM
NCI-H522 lung
  TGI: > 100 µM
SK-MEL-5 melanoma
  TGI: > 100 µM
OVCAR-4 ovarian
  TGI: > 100 µM
CCRF-CEM leukemia
  TGI: > 100 µM
SW-620 colon
  TGI: > 100 µM
HCT-116 colon
  TGI: > 100 µM
SNB-75 CNS
  TGI: > 100 µM
RPMI-8226 leukemia
  TGI: > 100 µM
MDA-N
  TGI: > 100 µM
RXF 393 renal
  TGI: > 100 µM
SF-268 CNS
  TGI: > 100 µM
SF-539 CNS
  TGI: > 100 µM
PC-3 prostate
  TGI: > 100 µM
TK-10 renal
  TGI: > 100 µM
NCI/ADR-RES ovarian
  TGI: > 100 µM
NCI-H23 lung
  TGI: > 100 µM
KM12 colon
  TGI: > 100 µM
EKVX NSCLC
  TGI: > 100 µM
MALME-3M melanoma
  TGI: > 100 µM
SNB-19 CNS
  TGI: > 100 µM
SN12C renal
  TGI: > 100 µM
OVCAR-3 ovarian
  TGI: > 100 µM
SF-295 CNS
  TGI: > 100 µM
U251 CNS
  TGI: > 100 µM

## C/C=C(C)/C=C/CC(C)CCC=C(C)C (centres undefined)
786-0 renal
  TGI: > 100 µM
UO-31 renal
  TGI: > 100 µM
BT-549 breast
  TGI: > 100 µM
A498 renal
  TGI: > 100 µM
M14 melanoma
  TGI: > 100 µM
A549 NSCLC
  TGI: > 100 µM
UACC-62 melanoma
  TGI: > 100 µM
UACC-257 melanoma
  TGI: > 100 µM
HOP-92 NSCLC
  TGI: > 100 µM
NCI-H226 lung
  TGI: > 100 µM
SR leukemia
  TGI: > 100 µM
LOX IMVI melanoma
  TGI: > 100 µM
IGROV1 ovarian
  TGI: > 100 µM
SK-OV-3 ovarian
  TGI: > 100 µM
MCF7 breast
  TGI: > 100 µM
NCI-H460 lung
  TGI: > 100 µM
MDA-MB-435
  TGI: > 100 µM
K-562 leukemia
  TGI: > 100 µM
HL-60(TB) leukemia
  TGI: > 100 µM
MDA-MB-231 breast
  TGI: > 100 µM
DU-145 prostate
  TGI: > 100 µM
OVCAR-8 ovarian
  TGI: > 100 µM
ACHN renal
  TGI: > 100 µM
SK-MEL-28 melanoma
  TGI: > 100 µM
HT29 colon
  TGI: > 100 µM
OVCAR-5 ovarian
  TGI: > 100 µM
MOLT-4 leukemia
  TGI: > 100 µM
SK-MEL-5 melanoma
  TGI: > 100 µM
OVCAR-4 ovarian
  TGI: > 100 µM
CCRF-CEM leukemia
  TGI: > 100 µM
SW-620 colon
  TGI: > 100 µM
HCT-116 colon
  TGI: > 100 µM
SNB-75 CNS
  TGI: > 100 µM
MDA-N
  TGI: > 100 µM
RXF 393 renal
  TGI: > 100 µM
SF-539 CNS
  TGI: > 100 µM
TK-10 renal
  TGI: > 100 µM
CAKI-1 renal
  TGI: > 100 µM
NCI/ADR-RES ovarian
  TGI: > 100 µM
KM12 colon
  TGI: > 100 µM
EKVX NSCLC
  TGI: > 100 µM
SK-MEL-2 melanoma
  TGI: > 100 µM
HCT-15 colon
  TGI: > 100 µM
SNB-19 CNS
  TGI: > 100 µM
SN12C renal
  TGI: > 100 µM
OVCAR-3 ovarian
  TGI: > 100 µM
SF-295 CNS
  TGI: > 100 µM
U251 CNS
  TGI: > 100 µM
COLO 205 colon
  TGI: > 100 µM
